Marks after values point to notes of the source that are not given here.
Legend:
[1] = test system: HaCaT (Human keratinocyte); assay: LDH enzyme release assay; assay type: cell-based
Experimental: For testing Apoptosis the Human Keratinocytes (HaCaT) cell line has been employed. The growth conditions are DMEM containing 1% FBS. […] Test concentration range is IS181 is tested at the highest (Qualitative analysis) effective concentrations selected on the basis of Quantitative JC-1 assay. The method of estimation is Mitochondrial membrane depolarization by JC-1 assay (Early apoptosis), LDH enzyme release (Necrosis). Treatment regimen & time points are JC-1 assay—Single addition, 20 h; LDH assay—Single addition, 24 h; Positive control: Triton-X-100, Doxorubicin-hydrochloride
End-point: Percentage increase in LDH activity in treated cells with respect to untreated.

TNF-α = assay: LPS stimulated TNF-α secretion in RAW264.7; assay type: cell-based, Mouse; details: for TNF-α % decrease with respect to LPS / TNF-α Conc (pg/ml): RAW264.7 + LPS, 24 h
Experimental: Effect on pro-inflammatory cytokines against LPS stimulation: TNF-α; IL-6; IL-1-β: Cell lines: Murine macrophage cell line (RAW264.7); test item: IS181; experimental steps: pretreatment of cells with TI for 2 hours; stimulation with LPS (100 ng/ml) for 24 hours; supernatant collection for cytokine analysis; concentration range: o.1 μg/ml-500 μg/ml (duplicate wells); Cytokines: TNF-α; IL-6; IL-1-β; Method of estimating cytokines: ELISA; positive control: dexamethasone.
Cell line: RAW264.7 (Mouse macrophages); TI treatment regimen: Pretreatment for 2 h; TI Concentration range: 0.1 μg/ml-500 μg/ml (duplicate wells); LPS stimulation: 100 ng/ml; Time point for supernatants collection: 24 h; Method of estimation: ELISA; Positive control: Dexamethasone

TARC = assay: TNF-α stimulated TARC secretion in HaCaT; assay type: cell-based, Human; details: for TARC % decrease with respect to TNF-α / TARC Conc: HaCaT + TNF-α, 24 h
Experimental: (§1) Effect on pro-inflammatory cytokines against TNF-α/LPS+PMA stimulation: TNF-α; IFN-γ; TARC; TSLP; IL-6; IL-8: Cell lines: Human keratinocytes (HaCaT); test item (TI); IS181; experimental steps: pre-treatment of cells with TI for 2 hours; stimulation with TNF-α: 20 ng/ml; stimulation with LPS+PMA-10 μg/ml LPS+40 ng/ml PMA; supernatant collection for cytokine analysis after 24 hours; concentration range: 0.1 μg/ml-100 μg/ml (duplicate wells); cytokines: TNF-α; IFN-γ; TARC; TSLP; IL-6; IL-8. Method of estimating cytokines: ELISA; positive control: dexamethasone.
(§2) Cell line: HaCaT (Human Keratinocytes); TI Treatment regimen: Pretreatment for 2 h; TI Concentration range: 0.1 μg/ml-100 μg/ml (duplicate wells); TNF-α stimulation: 20 ng/ml; LPS+PMA stimulation: 10 μg/ml LPS+40 ng/ml PMA; Time point for supernatants collection: 24 h; Method of estimation: ELISA; Positive control: Dexamethasone

TSLP = assay: LPS+PMA stimulated TSLP secretion in HaCaT; assay type: cell-based, Human; details: for TSLP % decrease with respect to LPS + PMA / TSLP Conc (pg/ml): HaCaT + LPS + PMA, 24 h
Experimental: as §1, §2

MAP2K1 (MEK1) = MAP2K1 (MEK1) (Homo sapiens, UniProt Q02750); assay: Biochemical kinase assay MAP2K1
Sequence of MAP2K1 (MEK1) (Q02750 whole entry): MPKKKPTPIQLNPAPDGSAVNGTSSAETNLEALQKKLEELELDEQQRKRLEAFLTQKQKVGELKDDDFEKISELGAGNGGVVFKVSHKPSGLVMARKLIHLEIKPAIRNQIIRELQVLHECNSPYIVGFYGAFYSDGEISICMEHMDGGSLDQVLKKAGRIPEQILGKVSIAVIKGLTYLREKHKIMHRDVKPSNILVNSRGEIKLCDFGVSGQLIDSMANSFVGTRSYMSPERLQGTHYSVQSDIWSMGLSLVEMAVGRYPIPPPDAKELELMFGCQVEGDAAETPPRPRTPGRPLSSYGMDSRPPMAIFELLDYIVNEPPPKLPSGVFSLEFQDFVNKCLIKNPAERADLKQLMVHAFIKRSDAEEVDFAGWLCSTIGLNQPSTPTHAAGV
Experimental: Test system: cell free assays; test items: IS181; concentrations tested: 1 ng/ml-5000 μg/ml; Kinases: a) Cell free assays: EGFR (ErbB1); FLT1 (VEGFR1); JAK1; JAK3 MAP2K1 (MEK1); PDGFRA (PDGFR alpha); PRKCA (PKC alpha); b) cell based assay: JAK-STAT.

8-oxo-G = assay: UVB damage: 8-oxo-G formation (ELISA); assay type: cell-based, human; details: HaCaT, UVB 30 mJ/cm2, 5 μg/ml
Experimental: Effect on Cyclobutane Pyrimidine Dimers (CPD); Effect on 8-oxo-G formation: Cell line: HaCaT (human keratinocytes); test items: IS 181; concentration range: 0.1-100 μg/ml (Duplicate wells). Method of estimation: Plating of cells; Sera starvation with 0.1% FBS (24 hours); treatment of cells with test items (24 hours); UVB damage (30 mJ/cm2)+Test items addition (24 hours); Cyclobutane pyrimidine dimers (CPD) and 8-oxo-G estimation using ELISA.

[2] = In vitro combination Anthralin and IS 181 (MTT); assay type: cell-based, Human; details: human, HaCaT keratinocytes, read-out: percent inhibition of cell viability/cytotoxicity
Experimental: (§3) Percentage cytotoxicity was determined using MTT assay.

[3] = test system: Human Keratinocytes (HaCaT); assay: In vitro combination Anthralin and IS 181 (MTT); assay type: cell-based; details: 72 h
Experimental: as §3

increase in LDH enzyme activity with respect to untreated ([1]; 750 μg/ml to 2 mg/ml): ≥ 90% | % Increase with respect to untreated (LDH) ([1]; 24 h, 400 μg/ml): 26.03% | LDH Activity (mU/ml) ([1]; 24 h, 400 μg/ml): 79.73 mU/ml | % Increase with respect to untreated (LDH) ([1]; 24 h, 475 μg/ml): ***49.73% | LDH Activity (mU/ml) ([1]; 24 h, 475 μg/ml): 94.71 mU/ml | % Increase with respect to untreated (LDH) ([1]; 24 h, 500 μg/ml): **34.76% | LDH Activity (mU/ml) ([1]; 24 h, 500 μg/ml): 85.25 mU/ml | % Increase with respect to untreated (LDH) ([1]; 24 h, 750 μg/ml): ***90.43% | LDH Activity (mU/ml) ([1]; 24 h, 750 μg/ml): 120.47 mU/ml | % Increase with respect to untreated (LDH) ([1]; 24 h, 1000 μg/ml): ***116.28% | LDH Activity (mU/ml) ([1]; 24 h, 1000 μg/ml): 136.82 mU/ml | % Increase with respect to untreated (LDH) ([1]; 24 h, 2000 μg/ml): ***119.09% | LDH Activity (mU/ml) ([1]; 24 h, 2000 μg/ml): 138.60 mU/ml | increase in LDH enzyme release with respect to untreated ([1]; 24 h, concentrations around IC50 value): > 50% | inhibition of MAP2K1 (MEK1) (MAP2K1 (MEK1); 10 μg/ml-5000 μg/ml): 23%-49% | inhibition at 50 µg/mL (MAP2K1 (MEK1); cell free, 50 μg/ml): 49% | inhibition at 100 µg/mL (MAP2K1 (MEK1); cell free, 100 μg/ml): 26% | inhibition at 250 µg/mL (MAP2K1 (MEK1); cell free, 250 μg/ml): 30% | inhibition at 500 µg/mL (MAP2K1 (MEK1); cell free, 500 μg/ml): 23% | inhibition at 1000 µg/mL (MAP2K1 (MEK1); cell free, 1000 μg/ml): 13% | inhibition at 2000 µg/mL (MAP2K1 (MEK1); cell free, 2000 μg/ml): -16% | inhibition at 5000 µg/mL (MAP2K1 (MEK1); cell free, 5000 μg/ml): -81%
Substance: H-WVQRVVEKFLK-OH [IS181, H-Trp-Val-Gln-Arg-Val-Val-Glu-Lys-Phe-Leu-Lys-OH]
TNF-α inhibition as compared to LPS stimulated levels (TNF-α; RAW264.7): good extent of TNF-α and IL-6 inhibition | TNF-α % decrease with respect to LPS (TNF-α; 0.1 μ/ml): 58.8% | TNF-α Conc (pg/ml) (TNF-α; 0.1 μ/ml): 1190.3*** pg/ml | TNF-α % decrease with respect to LPS (TNF-α; 1 μ/ml): 32.1% | TNF-α Conc (pg/ml) (TNF-α; 1 μ/ml): 1960.5*** pg/ml | TNF-α % decrease with respect to LPS (TNF-α; 5 μ/ml): 34.0% | TNF-α Conc (pg/ml) (TNF-α; 5 μ/ml): 1906.1*** pg/ml | TNF-α % decrease with respect to LPS (TNF-α; 10 μ/ml): 60.2% | TNF-α Conc (pg/ml) (TNF-α; 10 μ/ml): 1149.0*** pg/ml | TNF-α % decrease with respect to LPS (TNF-α; 100 μ/ml): 17.6% | TNF-α Conc (pg/ml) (TNF-α; 100 μ/ml): 2379.2* pg/ml | TNF-α % decrease with respect to LPS (TNF-α; 500 μ/ml): 38.4% | TNF-α Conc (pg/ml) (TNF-α; 500 μ/ml): 1779.9*** pg/ml | TNF-α secretion downregulated vs LPS stimulated levels (TNF-α; RAW264.7, 0.1 μg/ml-500 μg/ml): 17.6%-60.2% | TARC inhibition (TARC; HaCaT): good extent of IFN-γ and TARC inhibition | TARC % decrease with respect to TNF-α (TARC; 0.1 μg/ml): 28.6% | TARC Conc (TARC; 0.1 μg/ml): 43.2 pg/mL | TARC % decrease with respect to TNF-α (TARC; 1 μg/ml): 11.3% | TARC Conc (TARC; 1 μg/ml): 53.6 pg/mL | TARC % decrease with respect to TNF-α (TARC; 5 μg/ml): 1.5% | TARC Conc (TARC; 5 μg/ml): 59.5 pg/mL | TARC % decrease with respect to TNF-α (TARC; 10 μg/ml): 5.3% | TARC Conc (TARC; 10 μg/ml): 57.3 pg/mL | TARC % decrease with respect to TNF-α (TARC; 100 μg/ml): −22.6% | TARC Conc (TARC; 100 μg/ml): 74.1 pg/mL | secretion of TSLP inhibited as compared to LPS+PMA stimulated cells (TSLP; 0.1 μg/ml-100 μg/ml): 46.4%-53.6% | TSLP inhibition (TSLP; HaCaT): good extent of TSLP and IL-8 inhibition | TSLP % decrease with respect to LPS + PMA (TSLP; 0.1 μg/ml): 49.4% | TSLP Conc (pg/ml) (TSLP; 0.1 μg/ml): 62.9*** pg/ml | TSLP % decrease with respect to LPS + PMA (TSLP; 1 μg/ml): 47.9% | TSLP Conc (pg/ml) (TSLP; 1 μg/ml): 64.7*** pg/ml | TSLP % decrease with respect to LPS + PMA (TSLP; 5 μg/ml): 46.4% | TSLP Conc (pg/ml) (TSLP; 5 μg/ml): 66.6*** pg/ml | TSLP % decrease with respect to LPS + PMA (TSLP; 10 μg/ml): 53.6% | TSLP Conc (pg/ml) (TSLP; 10 μg/ml): 57.6*** pg/ml | TSLP % decrease with respect to LPS + PMA (TSLP; 100 μg/ml): 49.8% | TSLP Conc (pg/ml) (TSLP; 100 μg/ml): 62.4*** pg/ml | % Decrease in 8-OCO-G formation with respect to UVB irradiated untreated cells (8-oxo-G): 15.5% | cytotoxicity at 72 h, 10 μg/ml ([2]; IS 181 10 μg/ml alone): -10.4% | cytotoxicity at 72 h, 50 μg/ml ([2]; IS 181 50 μg/ml alone): -4.81% | cytotoxicity at 72 h, 100 μg/ml ([2]; IS 181 100 μg/ml alone): 8.16% | cytotoxicity at 72 h, 500 μg/ml ([2]; IS 181 500 μg/ml alone): 39.4% | cytotoxicity at 72 h, 1000 μg/ml ([2]; IS 181 1000 μg/ml alone): 62.4% | cytotoxicity at 72 h, 2000 μg/ml ([2]; IS 181 2000 μg/ml alone): 81.4% | cytotoxicity at 72 h, 5000 μg/ml ([2]; IS 181 5000 μg/ml alone): 94.2% | IC50 value of IS 181 ([3]; Anthralin 0 μM): 695.50 µg/mL | IC50 value of IS 181 ([3]; with Anthralin 0.01 μM): 872.80 µg/mL | IC50 value of IS 181 ([3]; with Anthralin 0.05 μM): 908.50 µg/mL | IC50 value of IS 181 ([3]; with Anthralin 0.1 μM): 677.60 µg/mL

— patent publication US10538561B2, “Peptide for treating inflammatory diseases” (priority 2015, dated 2020)
